Test results: ChEMBL document CHEMBL1154805, “Alternaramide, a cyclic depsipeptide from the marine-derived fungus Alternaria sp. SF-5016” (2009)
Active and inactive are the calls of the source. No cut-off for these calls is given here.

Legend:
Bacillus subtilis [1] = experiment: Antibacterial activity against Bacillus subtilis KCTC 1021 at 400 ug/disk after 48 hrs by disk diffusion method; assay type: functional; settings: KCTC 1021, 48 h, read-out: IZ
Staphylococcus aureus [2] = experiment: Antibacterial activity against Staphylococcus aureus KCTC 1928 at 400 ug/disk after 48 hrs by disk diffusion method; assay type: functional; settings: KCTC 1928, 48 h, read-out: IZ
Proteus vulgaris = experiment: Antibacterial activity against Proteus vulgaris KACC 12674 at 400 ug/disk after 48 hrs by disk diffusion method; assay type: functional, organism-based
Candida albicans = experiment: Antifungal activity against Candida albicans KCTC 7965 at 400 ug/disk after 48 hrs by disk diffusion method; assay type: functional, organism-based
Cryptococcus neoformans = experiment: Antifungal activity against Filobasidiella neoformans KCTC 7003 at 400 ug/disk after 48 hrs by disk diffusion method; assay type: functional, organism-based
[3] = biological target: T1, Tyrosine-protein phosphatase non-receptor type 1 (Homo sapiens) (UniProt P18031); experiment: Inhibition of human recombinant PTP1B assessed as p-nitrophenol release at 150 ug/ml after 30 mins by spectrophotometry
T1 sequence (whole entry): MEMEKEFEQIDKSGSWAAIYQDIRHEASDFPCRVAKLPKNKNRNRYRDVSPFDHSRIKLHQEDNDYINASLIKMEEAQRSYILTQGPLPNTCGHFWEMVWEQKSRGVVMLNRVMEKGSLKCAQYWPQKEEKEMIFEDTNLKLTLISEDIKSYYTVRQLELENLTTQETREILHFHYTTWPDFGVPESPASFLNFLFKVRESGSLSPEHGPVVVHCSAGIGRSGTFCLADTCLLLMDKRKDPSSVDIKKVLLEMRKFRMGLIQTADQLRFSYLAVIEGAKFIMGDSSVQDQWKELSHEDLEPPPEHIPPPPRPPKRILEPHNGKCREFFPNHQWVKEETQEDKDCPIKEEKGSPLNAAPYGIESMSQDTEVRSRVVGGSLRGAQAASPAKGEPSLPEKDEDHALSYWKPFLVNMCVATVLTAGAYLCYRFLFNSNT

Staphylococcus aureus [4] = experiment: Antibacterial activity against Staphylococcus aureus KCTC 1928 at 50 ug/disk after 48 hrs by disk diffusion method; assay type: functional, organism-based
Bacillus subtilis [5] = experiment: Antibacterial activity against Bacillus subtilis KCTC 1021 at 5 ug/disk after 48 hrs by disk diffusion method; assay type: functional, organism-based

Row | Molecule | zone of inhibition at 400 µg/disc (Bacillus subtilis [1]) [mm] | zone of inhibition at 400 µg/disc (Staphylococcus aureus [2]) [mm] | Activity (Proteus vulgaris) | Activity (Candida albicans) | Activity (Cryptococcus neoformans) | inhibition [3] [%] | inhibition zone (IZ) (Staphylococcus aureus [4]) [mm] | inhibition zone (IZ) (Bacillus subtilis [5]) [mm]
1 | CC(C)[C@@H]1OC(=O)[C@@H]2CCCN2C(=O)[C@@H](Cc2ccccc2)NC(=O)[C@@H]2CCCN2C(=O)[C@@H](Cc2ccccc2)NC1=O [ALTERNARAMIDE] | 8 | 13 | inactive | inactive | inactive | 49 | – | –
2 | GENTAMICIN | – | – | – | – | – | – | 13 | 16
